Measured values taken from article PMC9494209 (RSC Advances, 2022).

Experiments:
SARS-CoV-2 = format: cell-based; settings: for SI (selectivity index): IC50 Vero cell cytotoxicity divided by EC50 of the antiviral assay; for EC50: read-out: Antiviral assay (qPCR) EC50, Vero E6 cells, five concentrations, ± SE
SARS-CoV-2 M^pro = SARS-CoV-2 M^pro (Severe acute respiratory syndrome coronavirus 2, UniProt P0DTD1); test: biochemical; format: biochemical; settings: ± SE, triplicate readings; for IC50: IC50 against SARS-CoV-2 M^pro

Row | Compound | SI (selectivity index) (SARS-CoV-2) | IC50 (SARS-CoV-2 M^pro) | IC50 against SARS-CoV-2 M^pro (SARS-CoV-2 M^pro) | Antiviral assay (qPCR) Inhibition % (SARS-CoV-2; 10 µM) | EC50 (SARS-CoV-2)
1 | O=C(Nc1ccccc1F)c1cc2c(=O)n3ccccc3nc2n1Cc1ccccc1 [Compound 21, 1-Benzyl-N-(2-fluorophenyl)-4-oxo-1,4-dihydropyrido[1,2-a]pyrrolo[2,3-d]pyrimidine-2-carboxamide] | 3544 | 25.4 ± 2.4 µM |  |  | 
2 | CCc1ccc(NC(=O)c2cc3c(=O)n4ccccc4nc3n2C)cc1 [Compound 24, N-(4-Ethylphenyl)-1-methyl-4-oxo-1,4-dihydropyrido[1,2-a]pyrrolo[2,3-d]pyrimidine-2-carboxamide] | 283.3 | 82.2 ± 15 µM |  |  | 
3 | Cc1cc(NC(=O)c2cc3c(=O)n4cccc(C)c4nc3n2C)ccc1Br [Compound 28, N-(4-Bromo-3-methylphenyl)-1,9-dimethyl-4-oxo-1,4-dihydropyrido[1,2-a]pyrrolo[2,3-d]-pyrimidine-2-carboxamide] | 1278 | 46 ± 8.62 µM |  |  | 
4 | CC(=O)c1cccc(NC(=O)c2cc3c(=O)n4ccccc4nc3n2C)c1 [Compound 25, N-(3-Acetylphenyl)-1-methyl-4-oxo-1,4-dihydropyrido[1,2-a]pyrrolo[2,3-d]pyrimidine-2-carboxamide] | 1135 | 5.42 µM | low micromolar concentrations |  | 
5 | Cc1cccn2c(=O)c3cc(C(=O)Nc4ccc(N(C)C)cc4)n(C)c3nc12 [Compound 26, N-(4-(Dimethylamino)phenyl)-1,9-dimethyl-4-oxo-1,4-dihydropyrido[1,2-a]pyrrolo[2,3-d]-pyrimidine-2-carboxamide] | 2323 | 407.5 ± 3.44 µM |  | 94.05% | 
6 | CCC(CC)COC(=O)[C@H](C)N[P@](=O)(OC[C@H]1O[C@@](C#N)(c2ccc3c(N)ncnn23)[C@H](O)[C@@H]1O)Oc1ccccc1 [Remdesivir, reference compound] | 7195 |  |  |  | 
7 | Cc1ccc(NC(=O)c2cc3c(=O)n4cccc(C)c4nc3n2C)cc1Cl [Compound 27, N-(3-Chloro-4-methylphenyl)-1,9-dimethyl-4-oxo-1,4-dihydropyrido[1,2-a]pyrrolo[2,3-d]-pyrimidine-2-carboxamide] | 622.2 | 165 ± 16.7 µM |  |  | 
8 | Cn1c(C(=O)Nc2ccc3c(c2)OCCO3)cc2c(=O)n3ccccc3nc21 [Compound 29, N-(2,3-Dihydrobenzo[b][1,4]dioxin-6-yl)-1-methyl-4-oxo-1,4-dihydropyrido[1,2-a]pyrrolo-[2,3-d]pyrimidine-2-carboxamide] | 2909 | 3.22 ± 2.83 µM | low micromolar concentrations |  | 0.0519 ± 0.00512 µM
9 | Cn1c(C(=O)Nc2ccc(Cl)cc2)cc2c(=O)n3ccccc3nc21 [Compound 22, N-(4-Chlorophenyl)-1-methyl-4-oxo-1,4-dihydropyrido[1,2-a]pyrrolo[2,3-d]pyrimidine-2-carboxamide] | 1766 | 236 ± 4.29 µM |  |  | 0.109 ± 0.0111 µM
